A short description of data set [1]: Physical state of alkanediols and alkanediol mixtures at RTP. The following applies: at RTP (room temperature, normal pressure); FIG. 3 and FIG. 4. It is filed as physicochemical. From the text:
The term “liquid alkanediol” within the context of the present invention means an alkanediol component which is liquid at room or ambient temperature and under normal pressure, i.e. standard RTP conditions.
FIG. 3 is a photograph showing from left to right samples of the liquid 1,2-pentanediol, 1,2-hexanediol, 1,2-heptanediol, 2,3-heptanediol, 2,3-octanediol and 2,3-undecanediol in comparison to the solid 1,2-octanediol, 1,2-undecanediol, 1,2-nonanediol and the liquid 2,3-nonanediol. The first six alkanediols are liquid at RTP, whereas 1,2-octanediol, 1,2-nonanediol and 1,2-undecanediol are solid substances at RTP; 2,3-nonanediol is also liquid at RTP.
FIG. 4 is a representative photograph of samples of mixtures of 1,2-alkanediols with the respective 2,3-alkanediol. All mixtures are liquid. They are shown in the following order: 1,2-heptanediol (95%)+2,3-heptanediol (5%), 1,2-octanediol (95%)+2,3-octanediol (5%), and 1,2-nonanediol (95%)+2,3-nonanediol (5%).

Data set [2] can be described thus: Maximum solubility of alkanediols in water (visual assessment). It is filed as physicochemical. The following applies: assessed at ambient temperature after 24 h storage at 5° C.; visual observation.
Excerpt: The water solubility of a substance is the saturation mass concentration of the substance in water at a given temperature. The determination of the solubility in water relates to essentially pure substances which are stable in water and not volatile.
For the determination of the maximum water solubility of an alkanediol, water and different concentrations of the respective alkanediol were blended by stirring. […] The determination of whether the alkanediol has dissolved in water is based entirely on visual observation.
In data set [3] the test system is microbial load of natural polymers. The data set is described as follows: Microbial load of mixtures of natural polymers with alkanediols (plating, CFU count). It is filed as cell-based, bacteria. On the procedure: The following tests were performed to show the influence of different alkanediols on the microbial load of natural polymers.
A selection of natural polymers as specified in Table 1 was systematically analyzed in combination with different 1,2-alkanediols and 2,3-alkanediols (0.5%). The polymers were chosen to be representative from different polymer classes:
A mixture of the natural polymer (concentration as recommended by supplier) with water and 1,2-alkanediol (0.5%) or 2,3-alkanediol (0.5%) or a mixture of 1,2-alkanediol and 2,3-alkanediol (0.5% final concentration) was prepared, as representative of a cold formulation preparation processes, and directly sampled for determination of microbial load. Additionally, the mixtures were stored at 40° C. and again sampled for microbial load after 2 days and 7 days.
The microbial load of the mixtures was determined by plating 1000 μl (or respective dilutions of the material) on an agar plate based on universal bacterial growth medium (Caseinpepton-Sojamehlpepton-Bouillon, Merck 1.05459+Agar No. 1, Oxoid LP0011). The plates were then incubated at 37° C. for 5 days and then photo documented. In parallel, bacterial colonies were counted (CFU—colony forming units per ml).

[4] abbreviates: Covathick (2009, cellulose 0.5%) in water + 0.5% 1,2-alkanediol, 2 days storage at 40° C.
[5] abbreviates: Covathick (2009, cellulose 0.5%) in water + 0.5% 1,2-alkanediol, 7 days storage at 40° C.
Where [6] appears, read: Covathick (2009, cellulose 0.5%) in water + 0.5% 1,2-alkanediol, fresh.
Setting [7] is: Genuvisco (CG-131, carrageenan 0.5%) in water + 0.5% 1,2-alkanediol, 2 days storage at 40° C.
Where [8] appears, read: Genuvisco (CG-131, carrageenan 0.5%) in water + 0.5% 1,2-alkanediol, 7 days storage at 40° C.
Setting [9] is: Genuvisco (CG-131, carrageenan 0.5%) in water + 0.5% 1,2-alkanediol, fresh.
[10] abbreviates: Nativacare (5600, corn starch 3%) in water + 0.5% 1,2-alkanediol, 2 days storage at 40° C.
The mark [11] stands for this setting: Nativacare (5600, corn starch 3%) in water + 0.5% 1,2-alkanediol, 7 days storage at 40° C.
The mark [12] stands for this setting: Nativacare (5600, corn starch 3%) in water + 0.5% 1,2-alkanediol, fresh.
[13] abbreviates: Polycos-N 75 (guar gum 0.5%) in water + 0.5% 1,2-alkanediol, 7 days storage at 40° C.
Setting [14] is: Polycos-N 75 (guar gum 0.5%) in water + 0.5% 1,2-alkanediol, fresh.
Setting [15] is: Table 4: Covathick (0.5%) in water + alkanediol or mixture, 0.5% total, 2 days storage at 40° C.
Where [16] appears, read: Table 4: Covathick (0.5%) in water + alkanediol or mixture, 0.5% total, 7 days storage at 40° C.
Setting [17] is: Table 4: Covathick (0.5%) in water + alkanediol or mixture, 0.5% total, fresh.
Where [18] appears, read: Table 4: PolyCos N-75 (0.5%) in water + alkanediol or mixture, 0.5% total, fresh.
Where [19] appears, read: Covathick (0.5%) in water + 0.5% 2,3-alkanediol, 2 days storage at 40° C.
The mark [20] stands for this setting: Covathick (0.5%) in water + 0.5% 2,3-alkanediol, 7 days storage at 40° C.
[21] abbreviates: Covathick (0.5%) in water + 0.5% 2,3-alkanediol, fresh.
[22] abbreviates: Genuvisco (0.5%) in water + 0.5% 2,3-alkanediol, 2 days storage at 40° C.
[23] abbreviates: Genuvisco (0.5%) in water + 0.5% 2,3-alkanediol, 7 days storage at 40° C.
Where [24] appears, read: Genuvisco (0.5%) in water + 0.5% 2,3-alkanediol, fresh.
[25] abbreviates: Polycos-N 75 (0.5%) in water + 0.5% 2,3-alkanediol, fresh.

As to `CCCCCCCCCC(O)CO` (stereo not drawn) [1,2-undecanediol], in data set [1], the Physical state result is on record as “solid”.

As to `CCCCCC(O)CO` (stereo not drawn) [1,2-heptanediol], in data set [2], the “Maximum solubility in water” value amounted to 2.5 % by weight. In data set [1], the Physical state entry is “liquid”. Moreover, the “Bacterial load (colony forming units)” value is 0 CFU per ml in data set [3] (setting [4]); 0 CFU per ml in data set [3] (setting [5]); 4 CFU per ml in data set [3] (setting [6]); 0 CFU per ml in data set [3] (setting [7]); 0 CFU per ml in data set [3] (setting [8]); 0 CFU per ml in data set [3] (setting [9]). The “Bacterial load (colony forming units)” value in data set [3] (setting [10]) was determined as 0 CFU per ml; in data set [3] (setting [11]), 0 CFU per ml; in data set [3] (setting [12]) it was 0 CFU per ml; in data set [3] (Polycos-N 75 (guar gum 0.5%) in water + 0.5% 1,2-alkanediol, 2 days storage at 40° C.), 0 CFU per ml; in data set [3] (setting [13]), 0 CFU per ml; in data set [3] (setting [14]), 5 CFU per ml. Also, the “Bacterial load (colony forming units)” value is reported as 0 CFU per mL in data set [3] (setting [15]); 0 CFU per mL in data set [3] (setting [16]); 4 CFU per mL in data set [3] (setting [17]); 0 CFU per mL in data set [3] (Table 4: PolyCos N-75 (0.5%) in water + alkanediol or mixture, 0.5% total, 2 days storage at 40° C.); 0 CFU per mL in data set [3] (Table 4: PolyCos N-75 (0.5%) in water + alkanediol or mixture, 0.5% total, 7 days storage at 40° C.); 5 CFU per mL in data set [3] (setting [18]). Also, the “Bacterial load (colony forming units)” value in data set [3] (Table 4: Xanthan Gum (0.5%) in water + alkanediol or mixture, 0.5% total, 2 days storage at 40° C.) is listed as 2 CFU per mL; in data set [3] (Table 4: Xanthan Gum (0.5%) in water + alkanediol or mixture, 0.5% total, 7 days storage at 40° C.), 0 CFU per mL; in data set [3] (Table 5: Covathick (0.5 %) in water + alkanediol or mixture, 0.5% total, 2 days storage at 40° C.), 0 CFU per mL; in data set [3] (Table 5: Covathick (0.5 %) in water + alkanediol or mixture, 0.5% total, 7 days storage at 40° C.) it was 0 CFU per mL; in data set [3] (Table 5: Covathick (0.5 %) in water + alkanediol or mixture, 0.5% total, fresh), 4 CFU per mL; in data set [3] (Table 5: PolyCos N-75 (0.5 %) in water + alkanediol or mixture, 0.5% total, 2 days storage at 40° C.) it was 0 CFU per mL. The “Bacterial load (colony forming units)” value in data set [3] (Table 5: PolyCos N-75 (0.5 %) in water + alkanediol or mixture, 0.5% total, 7 days storage at 40° C.) came out at 0 CFU per mL; in data set [3] (Table 5: PolyCos N-75 (0.5 %) in water + alkanediol or mixture, 0.5% total, fresh) it was 5 CFU per mL; in data set [3] (Table 5: Xanthan Gum (0.5 %) in water + alkanediol or mixture, 0.5% total, 2 days storage at 40° C.), 2 CFU per mL; in data set [3] (Table 5: Xanthan Gum (0.5 %) in water + alkanediol or mixture, 0.5% total, 7 days storage at 40° C.), 0 CFU per mL; in data set [3] (Xanthan Gum (Rheocare XGN 0.5%) in water + 0.5% 1,2-alkanediol, 2 days storage at 40° C.) it was 2 CFU per ml; in data set [3] (Xanthan Gum (Rheocare XGN 0.5%) in water + 0.5% 1,2-alkanediol, 7 days storage at 40° C.), 0 CFU per ml. Further, the “Activity to stabilize natural polymer solutions for storage by removing their microbial load (in words)” value in data set [3] (compared to 1,2-pentanediol and 1,2-hexanediol, Table 2) was “superior activity”.

Take `CCCCCCCC(O)CO` (stereo not drawn) [1,2-nonanediol]: the “Maximum solubility in water” value in data set [2] amounted to 0.1 % by weight. Moreover, in data set [1], the Physical state result was “solid”.

As for `CCCCC(O)C(C)O` (stereo not drawn) [2,3-heptanediol], in data set [2], the “Maximum solubility in water” value turned out to be 3.6 % by weight. Also, the Physical state result in data set [1] was “liquid”. Further, the “Bacterial load (colony forming units)” value stood at 0 CFU per mL in data set [3] (setting [19]); 0 CFU per mL in data set [3] (setting [20]); 5 CFU per mL in data set [3] (setting [21]); 1 CFU per mL in data set [3] (setting [22]); 1 CFU per mL in data set [3] (setting [23]); 5 CFU per mL in data set [3] (setting [24]). Also, the “Bacterial load (colony forming units)” value came to 2 CFU per mL in data set [3] (setting [25]); 0 CFU per mL in data set [3] (setting [15]); 0 CFU per mL in data set [3] (setting [16]); 5 CFU per mL in data set [3] (setting [17]); 2 CFU per mL in data set [3] (setting [18]).

Take `CCCC(O)CO` (stereo not drawn) [1,2-pentanediol]: the “Maximum solubility in water” value in data set [2] was determined as 50 % by weight. In addition, the Physical state entry in data set [1] is given as “liquid”. The “Bacterial load (colony forming units)” value in data set [3] (setting [4]) is recorded as more than 13 CFU per ml; in data set [3] (setting [5]), 4 CFU per ml; in data set [3] (setting [6]), 84 CFU per ml; in data set [3] (setting [7]), 2800 CFU per ml; in data set [3] (setting [8]), 0 CFU per ml; in data set [3] (setting [9]), 35 CFU per ml. Besides, the “Bacterial load (colony forming units)” value is listed as 27 CFU per ml in data set [3] (setting [10]); more than 1000 CFU per ml in data set [3] (setting [11]); 0 CFU per ml in data set [3] (setting [12]); 13 CFU per ml in data set [3] (setting [13]); 13 CFU per ml in data set [3] (setting [14]); more than 249 CFU per ml in data set [3] (Xanthan Gum (Rheocare XGN 0.5%) in water + 0.5% 1,2-alkanediol, fresh).

As to `CCCCCCC(O)CO` (stereo not drawn) [1,2-octanediol], the “Maximum solubility in water” value in data set [2] worked out at 0.5 % by weight. Also, the Physical state result in data set [1] is “solid”.

On to `CCCCCCC(O)C(C)O` (stereo not drawn) [2,3-nonanediol], for which, in data set [2], the “Maximum solubility in water” value came to 0.3 % by weight. Besides, in data set [1], the Physical state entry is recorded as “liquid”.

Turning to `CCCCCCCCC(O)C(C)O` (stereo not drawn) [2,3-undecanediol], the Physical state result in data set [1] is given as “liquid”. Moreover, the “Bacterial load (colony forming units)” value in data set [3] (setting [19]), in data set [3] (setting [20]), in data set [3] (setting [21]), in data set [3] (setting [22]), in data set [3] (setting [23]) and in data set [3] (setting [24]) was 0 CFU per mL throughout. Moreover, the “Bacterial load (colony forming units)” value was 0 CFU per mL in data set [3] (Polycos-N 75 (0.5%) in water + 0.5% 2,3-alkanediol, 2 days storage at 40° C.); 0 CFU per mL in data set [3] (Polycos-N 75 (0.5%) in water + 0.5% 2,3-alkanediol, 7 days storage at 40° C.); 0 CFU per mL in data set [3] (setting [25]); 0 CFU per mL in data set [3] (Xanthan Gum (0.5%) in water + 0.5% 2,3-alkanediol, 2 days storage at 40° C.); 0 CFU per mL in data set [3] (Xanthan Gum (0.5%) in water + 0.5% 2,3-alkanediol, 7 days storage at 40° C.); 0 CFU per mL in data set [3] (Xanthan Gum (0.5%) in water + 0.5% 2,3-alkanediol, fresh). In data set [3] (directly after preparation of the mixtures as well as after 7 days storage, Table 3), the “Effect on the microbial load of the natural polymer solutions (in words)” value is “superior antimicrobial activity”.

Source of the values: patent publication US20230293404A1, “Compositions Comprising Natural Polymers and One or More (Bio)-Alkanediols” (Symrise AG, priority 2020, published 2023).
